Experimental data from patent EP4667483A1, “HUMAN TRANSFERRIN RECEPTOR-BINDING PEPTIDE” (JCR Pharmaceuticals Co., Ltd., priority 2023, dated 2024).
Numbered stars: 1 amine (or outer) side, 2 acyl side, 3 side chain; on linkers, the order of the positions; unused ones are H or OH. Bridge positions count the residues as written; N and C are the ends. Square brackets hold non-standard residues; d marks the D form. Peptide text beside a SMILES is read from it. * marks the point of attachment. Trp(1-CH2COOH) = N[C@@H](Cc1cn(CC(=O)O)c2ccccc12)C(=O)O; NMePhe(4-COOH) = CN[C@@H](Cc1ccc(C(=O)O)cc1)C(=O)O; X2 = O=C([C@H](Cc1cn(CCO)c2ccccc12)N[*:1])[*:2]; Phe(3-COOH) = N[C@@H](Cc1cccc(C(=O)O)c1)C(=O)O; NH(CH2CH2O)8Me = COCCOCCOCCOCCOCCOCCOCCOCCN*; NMePhe(3-Cl) = CN[C@@H](Cc1cccc(Cl)c1)C(=O)O; 3Pal(6-NH2) = Nc1ccc(C[C@H](N)C(=O)O)cn1; NMeY = CN[C@@H](Cc1ccc(O)cc1)C(=O)O; Nva(3-Et) = CCC(CC)[C@H](N)C(=O)O; PEG4 = NCCOCCOCCOCCOCCC(=O)O; Carboxymethyl = O=C(O)C*

Legend:
Format in all cases: binding
[1] = target: T1, human transferrin receptor (hTfR) (Homo sapiens, UniProt P02786); test: SPR measurement under pH 7.4 conditions (Biacore T200, CM3 chip, hTfR captured by His Tag antibody); conditions: SPR, pH 7.4; read-out: hTfR SPR pH7.4 KD
T1 sequence (P02786 whole entry): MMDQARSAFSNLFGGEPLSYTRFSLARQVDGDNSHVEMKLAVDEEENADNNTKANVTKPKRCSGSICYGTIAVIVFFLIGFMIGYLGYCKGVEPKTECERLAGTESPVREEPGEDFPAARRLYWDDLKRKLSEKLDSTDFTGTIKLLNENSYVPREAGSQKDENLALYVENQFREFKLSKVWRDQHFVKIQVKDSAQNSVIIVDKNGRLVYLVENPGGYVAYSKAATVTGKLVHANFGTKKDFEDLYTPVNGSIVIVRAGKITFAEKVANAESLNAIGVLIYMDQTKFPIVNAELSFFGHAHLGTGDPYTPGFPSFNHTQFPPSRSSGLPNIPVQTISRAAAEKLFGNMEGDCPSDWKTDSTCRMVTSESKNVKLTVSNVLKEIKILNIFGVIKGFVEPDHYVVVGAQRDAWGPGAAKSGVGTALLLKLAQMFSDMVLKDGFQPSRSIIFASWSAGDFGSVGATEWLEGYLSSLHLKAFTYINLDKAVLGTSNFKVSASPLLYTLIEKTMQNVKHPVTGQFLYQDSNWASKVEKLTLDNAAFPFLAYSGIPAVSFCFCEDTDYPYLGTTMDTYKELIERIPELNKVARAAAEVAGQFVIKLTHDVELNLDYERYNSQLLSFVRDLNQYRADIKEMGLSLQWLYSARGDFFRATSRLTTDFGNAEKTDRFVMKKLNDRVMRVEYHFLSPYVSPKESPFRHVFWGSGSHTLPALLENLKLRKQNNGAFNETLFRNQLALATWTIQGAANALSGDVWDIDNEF

[2] = target: T1, human transferrin receptor (hTfR); test: Evaluation of pH dependence (ratio of SPR koff or KD at pH 6.0 to pH 7.4); conditions: ratio of koff at pH 6.0 to pH 7.4
Method: The ratio of the calculated koff or KD values under pH 6.0 conditions to those under pH 7.4 conditions was calculated to check pH dependency.

[3] = target: T1, human transferrin receptor (hTfR); test: SPR measurement under pH 6.0 conditions (Biacore T200, NTA chip, immobilized hTfR); conditions: SPR, pH 6.0; read-out: hTfR SPR pH6.0 KD

| Structure (SMILES) | Kd [1] [nM] | dependency koff pH6.0/7.4 [2] | Kd [3] [nM] |
| --- | --- | --- | --- |
| CCC(CC)[C@@H]1NC(=O)[C@H](Cc2ccc(OCC(=O)O)cc2)NC(=O)[C@H](Cc2ccc(N)nc2)NC(=O)[C@H](CC(N)=O)NC(=O)[C@H](Cc2c[nH]c3ccccc23)NC(=O)[C@H](C(C)C)NC(=O)[C@H](Cc2cccc(Cl)c2)N(C)C(=O)[C@H](C(C)C)NC(=O)[C@H](C)NC(=O)CSC[C@@H](C(=O)NCCOCCOCCOCCOCCC(N)=O)NC(=O)[C@H](Cc2ccc(O)cc2)N(C)C(=O)[C@H](Cc2cccc(C(=O)O)c2)NC(=O)[C@H](CCCNC(=N)N)NC(=O)[C@H](CCC(=O)NCCOCCOCCOCCOCCOCCOCCOCCOC)NC(=O)[C@H]([C@@H](C)CC)NC1=O [compound 82] ({CH2CO}-AV[NMePhe(3-Cl)]VWN[3Pal(6-NH2)]Y(Carboxymethyl)[Nva(3-Et)]IE(NH(CH2CH2O)8Me)R[Phe(3-COOH)][NMeY]C[PEG4]-NH2; thioether N-15) | 27.1 | 20.39 | 252 |
| CC[C@H](C)[C@@H]1NC(=O)[C@H](Cc2ccc(OCC(=O)O)cc2)NC(=O)[C@H](Cc2ccc(O)cc2)NC(=O)[C@H](CC(N)=O)NC(=O)[C@H](Cc2cn(CCO)c3ccccc23)NC(=O)[C@H](C(C)C)NC(=O)[C@H](Cc2cccc(Cl)c2)N(C)C(=O)[C@H](C(C)C)NC(=O)[C@H](C)NC(=O)CSC[C@@H](C(=O)NCCOCCOCCOCCOCCC(N)=O)NC(=O)[C@H](Cc2ccc(O)cc2)N(C)C(=O)[C@H](Cc2cccc(C(=O)O)c2)NC(=O)[C@H](CCCNC(=N)N)NC(=O)[C@H](CCC(N)=O)NC(=O)[C@H]([C@@H](C)O)NC1=O [compound 76] ({CH2CO}-AV[NMePhe(3-Cl)]V[X2]NYY(Carboxymethyl)ITQR[Phe(3-COOH)][NMeY]C[PEG4]-NH2; thioether N-15) | 13 | 3.37 | 17 |
| CCC(CC)[C@@H]1NC(=O)[C@H](Cc2ccc(OCC(=O)O)cc2)NC(=O)[C@H](Cc2ccc(N)nc2)NC(=O)[C@H](CC(N)=O)NC(=O)[C@H](Cc2cn(CC(=O)O)c3ccccc23)NC(=O)[C@H](C(C)C)NC(=O)[C@H](Cc2cccc(Cl)c2)N(C)C(=O)[C@H](C(C)C)NC(=O)[C@H](C)NC(=O)CSC[C@@H](C(=O)NCCOCCOCCOCCOCCC(N)=O)NC(=O)[C@H](Cc2ccc(C(=O)O)cc2)N(C)C(=O)[C@H](Cc2cccc(C(=O)O)c2)NC(=O)[C@H](CCCNC(=N)N)NC(=O)[C@H](CCC(N)=O)NC(=O)[C@H]([C@@H](C)CC)NC1=O [compound 87] ({CH2CO}-AV[NMePhe(3-Cl)]V[Trp(1-CH2COOH)]N[3Pal(6-NH2)]Y(Carboxymethyl)[Nva(3-Et)]IQR[Phe(3-COOH)][NMePhe(4-COOH)]C[PEG4]-NH2; thioether N-15) | 175 | 17.51 | 466 |
